Laboratory results as given in ChEMBL document CHEMBL4420075, “Seriniquinones, melanoma-specific anticancer agents” (2016).
Activity calls are given as the source filed them. No cut-off for these calls is given here.

What was measured:
MOLT-4 = test: Growth inhibition of human MOLT4 cells assessed as cell growth incubated for 48 hrs by sulforhodamine B assay; type: functional; set-up: concentration or dose not given beside the values
RPMI-8226 = test: Growth inhibition of human RPMI8226 cells assessed as cell growth incubated for 48 hrs by sulforhodamine B assay; type: functional; set-up: concentration or dose not given beside the values
K562 = test: Growth inhibition of human K562 cells assessed as cell growth incubated for 48 hrs by sulforhodamine B assay; type: functional; set-up: concentration or dose not given beside the values
CCRF-CEM = test: Growth inhibition of human CCRF-CEM cells assessed as cell growth incubated for 48 hrs by sulforhodamine B assay; type: functional; set-up: concentration or dose not given beside the values
HL-60(TB) = test: Growth inhibition of human HL-60(TB) cells assessed as cell growth incubated for 48 hrs by sulforhodamine B assay; type: functional; set-up: concentration or dose not given beside the values
SR = test: Growth inhibition of human SR cells assessed as cell growth incubated for 48 hrs by sulforhodamine B assay; type: functional; set-up: concentration or dose not given beside the values
A549 = test: Growth inhibition of human A549/ATCC cells assessed as cell growth incubated for 48 hrs by sulforhodamine B assay; type: functional; set-up: concentration or dose not given beside the values
HOP-62 = test: Growth inhibition of human HOP62 cells assessed as cell growth incubated for 48 hrs by sulforhodamine B assay; type: functional; set-up: concentration or dose not given beside the values
HOP-92 = test: Growth inhibition of human HOP92 cells assessed as cell growth incubated for 48 hrs by sulforhodamine B assay; type: functional; set-up: concentration or dose not given beside the values
NCI-H226 = test: Growth inhibition of human NCI-H226 cells assessed as cell growth incubated for 48 hrs by sulforhodamine B assay; type: functional; set-up: concentration or dose not given beside the values
NCI-H23 = test: Growth inhibition of human NCI-H23 cells assessed as cell growth incubated for 48 hrs by sulforhodamine B assay; type: functional; set-up: concentration or dose not given beside the values
NCI-H322M = test: Growth inhibition of human NCI-H322M cells assessed as cell growth incubated for 48 hrs by sulforhodamine B assay; type: functional; set-up: scale not given: the % may be the effect or the level left
NCI-H460 = test: Growth inhibition of human NCI-H460 cells assessed as cell growth incubated for 48 hrs by sulforhodamine B assay; type: functional; set-up: concentration or dose not given beside the values
NCI-H522 = test: Growth inhibition of human NCI-H522 cells assessed as cell growth incubated for 48 hrs by sulforhodamine B assay; type: functional; set-up: concentration or dose not given beside the values
COLO 205 = test: Growth inhibition of human COLO205 cells assessed as cell growth incubated for 48 hrs by sulforhodamine B assay; type: functional; set-up: concentration or dose not given beside the values
HCC 2998 = test: Growth inhibition of human HCC2998 cells assessed as cell growth incubated for 48 hrs by sulforhodamine B assay; type: functional; set-up: concentration or dose not given beside the values
HCT-116 = test: Growth inhibition of human HCT116 cells assessed as cell growth incubated for 48 hrs by sulforhodamine B assay; type: functional; set-up: concentration or dose not given beside the values
HCT-15 = test: Growth inhibition of human HCT15 cells assessed as cell growth incubated for 48 hrs by sulforhodamine B assay; type: functional; set-up: scale not given: the % may be the effect or the level left
HT-29 = test: Growth inhibition of human HT-29 cells assessed as cell growth incubated for 48 hrs by sulforhodamine B assay; type: functional; set-up: concentration or dose not given beside the values
KM12 = test: Growth inhibition of human KM12 cells assessed as cell growth incubated for 48 hrs by sulforhodamine B assay; type: functional; set-up: concentration or dose not given beside the values
SW-620 = test: Growth inhibition of human SW620 cells assessed as cell growth incubated for 48 hrs by sulforhodamine B assay; type: functional; set-up: concentration or dose not given beside the values
SF-268 = test: Growth inhibition of human SF268 cells assessed as cell growth incubated for 48 hrs by sulforhodamine B assay; type: functional; set-up: concentration or dose not given beside the values
SF-295 = test: Growth inhibition of human SF295 cells assessed as cell growth incubated for 48 hrs by sulforhodamine B assay; type: functional; set-up: concentration or dose not given beside the values
SF-539 = test: Growth inhibition of human SF539 cells assessed as cell growth incubated for 48 hrs by sulforhodamine B assay; type: functional; set-up: scale not given: the % may be the effect or the level left
SNB-19 = test: Growth inhibition of human SNB19 cells assessed as cell growth incubated for 48 hrs by sulforhodamine B assay; type: functional; set-up: concentration or dose not given beside the values
SNB-75 = test: Growth inhibition of human SNB75 cells assessed as cell growth incubated for 48 hrs by sulforhodamine B assay; type: functional; set-up: concentration or dose not given beside the values
U-251 = test: Growth inhibition of human U251 cells assessed as cell growth incubated for 48 hrs by sulforhodamine B assay; type: functional; set-up: concentration or dose not given beside the values
LOX IMVI = test: Growth inhibition of human LOXIMVI cells assessed as cell growth incubated for 48 hrs by sulforhodamine B assay; type: functional; set-up: concentration or dose not given beside the values
Malme-3M = test: Growth inhibition of human MALME-3M cells assessed as cell growth incubated for 48 hrs by sulforhodamine B assay; type: functional; set-up: scale not given: the % may be the effect or the level left
M14 = test: Growth inhibition of human M14 cells assessed as cell growth incubated for 48 hrs by sulforhodamine B assay; type: functional; set-up: concentration or dose not given beside the values
MDA-MB-435 = test: Growth inhibition of human MDA-MB-435 cells assessed as cell growth incubated for 48 hrs by sulforhodamine B assay; type: functional; set-up: concentration or dose not given beside the values
SK-MEL-2 = test: Growth inhibition of human SK-MEL-2 cells assessed as cell growth incubated for 48 hrs by sulforhodamine B assay; type: functional; set-up: concentration or dose not given beside the values
SK-MEL-28 = test: Growth inhibition of human SK-MEL-28 cells assessed as cell growth incubated for 48 hrs by sulforhodamine B assay; type: functional; set-up: concentration or dose not given beside the values
SK-MEL-5 = test: Growth inhibition of human SK-MEL-5 cells assessed as cell growth incubated for 48 hrs by sulforhodamine B assay; type: functional; set-up: concentration or dose not given beside the values
UACC-257 = test: Growth inhibition of human UACC257 cells assessed as cell growth incubated for 48 hrs by sulforhodamine B assay; type: functional; set-up: concentration or dose not given beside the values
UACC-62 = test: Growth inhibition of human UACC62 cells assessed as cell growth incubated for 48 hrs by sulforhodamine B assay; type: functional; set-up: concentration or dose not given beside the values
OVCAR-3 = test: Growth inhibition of human OVCAR3 cells assessed as cell growth incubated for 48 hrs by sulforhodamine B assay; type: functional; set-up: concentration or dose not given beside the values
OVCAR-4 = test: Growth inhibition of human OVCAR4 cells assessed as cell growth incubated for 48 hrs by sulforhodamine B assay; type: functional; set-up: concentration or dose not given beside the values
OVCAR-5 = test: Growth inhibition of human OVCAR5 cells assessed as cell growth incubated for 48 hrs by sulforhodamine B assay; type: functional; set-up: scale not given: the % may be the effect or the level left
OVCAR-8 = test: Growth inhibition of human OVCAR8 cells assessed as cell growth incubated for 48 hrs by sulforhodamine B assay; type: functional; set-up: concentration or dose not given beside the values
NCI/ADR-RES = test: Growth inhibition of human NCI/ADR-RES cells assessed as cell growth incubated for 48 hrs by sulforhodamine B assay; type: functional; set-up: concentration or dose not given beside the values
SK-OV-3 = test: Growth inhibition of human SKOV3 cells assessed as cell growth incubated for 48 hrs by sulforhodamine B assay; type: functional; set-up: concentration or dose not given beside the values
786-0 = test: Growth inhibition of human 786-0 cells assessed as cell growth incubated for 48 hrs by sulforhodamine B assay; type: functional; set-up: concentration or dose not given beside the values
A498 = test: Growth inhibition of human A498 cells assessed as cell growth incubated for 48 hrs by sulforhodamine B assay; type: functional; set-up: concentration or dose not given beside the values
ACHN = test: Growth inhibition of human ACHN cells assessed as cell growth incubated for 48 hrs by sulforhodamine B assay; type: functional; set-up: scale not given: the % may be the effect or the level left
CAKI-1 = test: Growth inhibition of human Caki1 cells assessed as cell growth incubated for 48 hrs by sulforhodamine B assay; type: functional; set-up: concentration or dose not given beside the values
RXF 393 = test: Growth inhibition of human RXF393 cells assessed as cell growth incubated for 48 hrs by sulforhodamine B assay; type: functional; set-up: concentration or dose not given beside the values
SN12C = test: Growth inhibition of human SN12C cells assessed as cell growth incubated for 48 hrs by sulforhodamine B assay; type: functional; set-up: concentration or dose not given beside the values
TK-10 = test: Growth inhibition of human TK10 cells assessed as cell growth incubated for 48 hrs by sulforhodamine B assay; type: functional; set-up: concentration or dose not given beside the values
UO-31 = test: Growth inhibition of human UO31 cells assessed as cell growth incubated for 48 hrs by sulforhodamine B assay; type: functional; set-up: concentration or dose not given beside the values
PC-3 = test: Growth inhibition of human PC3 cells assessed as cell growth incubated for 48 hrs by sulforhodamine B assay; type: functional; set-up: concentration or dose not given beside the values
DU-145 = test: Growth inhibition of human DU145 cells assessed as cell growth incubated for 48 hrs by sulforhodamine B assay; type: functional; set-up: concentration or dose not given beside the values
MCF7 = test: Growth inhibition of human MCF7 cells assessed as cell growth incubated for 48 hrs by sulforhodamine B assay; type: functional; set-up: concentration or dose not given beside the values
MDA-MB-231 = test: Growth inhibition of human MDA-MB-231 cells assessed as cell growth incubated for 48 hrs by sulforhodamine B assay; type: functional; set-up: concentration or dose not given beside the values
Hs-578T = test: Growth inhibition of human Hs 578T cells assessed as cell growth incubated for 48 hrs by sulforhodamine B assay; type: functional; set-up: concentration or dose not given beside the values
BT-549 = test: Growth inhibition of human BT549 cells assessed as cell growth incubated for 48 hrs by sulforhodamine B assay; type: functional; set-up: concentration or dose not given beside the values
T47D = test: Growth inhibition of human T47D cells assessed as cell growth incubated for 48 hrs by sulforhodamine B assay; type: functional; set-up: concentration or dose not given beside the values
MDA-MB-468 = test: Growth inhibition of human MDA-MB-468 cells assessed as cell growth incubated for 48 hrs by sulforhodamine B assay; type: functional; set-up: concentration or dose not given beside the values
Dermcidin (Homo sapiens) = target: T1, Dermcidin (Homo sapiens) (UniProt P81605); test: Covalent binding affinity to DCD-1L (unknown origin) at 50 uM incubated for 24 hrs by denatured SDS-PAGE gel electrophoresis
T1 sequence (whole entry): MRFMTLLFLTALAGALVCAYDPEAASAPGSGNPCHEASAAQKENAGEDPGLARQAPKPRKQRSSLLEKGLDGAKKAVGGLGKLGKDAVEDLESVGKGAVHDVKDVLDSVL

CC(C)(O)C(O)CCc1ccc2c(=O)c3sc4c(=O)c5ccccc5c(=O)c4c3c(=O)c2c1 (centres undefined)
Activity (MOLT-4): -36.2%
Activity (RPMI-8226): -39.84%
Activity (K562): -59.88%
Activity (CCRF-CEM): -29.57%
Activity (HL-60(TB)): -46.78%
Activity (SR): -25%
Activity (A549): -55.33%
Activity (HOP-62): -90.94%
Activity (HOP-92): -32.93%
Activity (NCI-H226): -49.62%
Activity (NCI-H23): -50.82%
Activity (NCI-H322M): -97.48%
Activity (NCI-H460): -52.32%
Activity (NCI-H522): -72.26%
Activity (COLO 205): -91.79%
Activity (HCC 2998): -90.76%
Activity (HCT-116): -80.84%
Activity (HCT-15): -61.54%
Activity (HT-29): -46.19%
Activity (KM12): -76.76%
Activity (SW-620): -60.32%
Activity (SF-268): -57.54%
Activity (SF-295): -92.59%
Activity (SF-539): -99.46%
Activity (SNB-19): -98.59%
Activity (SNB-75): -95.74%
Activity (U-251): -92.83%
Activity (LOX IMVI): -82.6%
Activity (Malme-3M): -93.22%
Activity (M14): -93.82%
Activity (MDA-MB-435): -93.07%
Activity (SK-MEL-2): -72.32%
Activity (SK-MEL-28): -96.8%
Activity (SK-MEL-5): -98.07%
Activity (UACC-257): -92.08%
Activity (UACC-62): -88.01%
Activity (OVCAR-3): -68.52%
Activity (OVCAR-4): -71.07%
Activity (OVCAR-5): -85.63%
Activity (OVCAR-8): -38.88%
Activity (NCI/ADR-RES): -15.35%
Activity (SK-OV-3): -97.49%
Activity (786-0): -95.07%
Activity (A498): -87.3%
Activity (ACHN): -96.22%
Activity (CAKI-1): -78.75%
Activity (RXF 393): -77.25%
Activity (SN12C): -69%
Activity (TK-10): -89.49%
Activity (UO-31): -96.98%
Activity (PC-3): -79.46%
Activity (DU-145): -94.41%
Activity (MCF7): -58.78%
Activity (MDA-MB-231): -15.99%
Activity (Hs-578T): 1.09%
Activity (BT-549): -96.67%
Activity (T47D): -51.1%
Activity (MDA-MB-468): -83.65%

CC(C)=CCCc1ccc2c(=O)c3c(sc4c(=O)c5ccccc5c(=O)c43)c(=O)c2c1
Activity (Dermcidin (Homo sapiens)): Active
